Experimental data reported in article PMC11788587, “Validating Low‐Dose Iohexol as a Marker for Glomerular Filtration Rate by In Vitro and In Vivo Studies” (Clinical and Translational Science, 2025).

Key:
hMATE1 = biological target: T1, hMATE1 (Homo sapiens, UniProt Q96FL8); experiment: Inhibition of hMATE1-mediated MPP+ uptake, stably transfected 293 cells; type: cell-based; settings: substrate 3 µM MPP+, median (95% CI)
T1 construct: expressed in transfected cells; host or cells: HEK-293 (293) cells, pEBTetD plasmid, doxycycline-induced
T1 sequence (Q96FL8 1-570): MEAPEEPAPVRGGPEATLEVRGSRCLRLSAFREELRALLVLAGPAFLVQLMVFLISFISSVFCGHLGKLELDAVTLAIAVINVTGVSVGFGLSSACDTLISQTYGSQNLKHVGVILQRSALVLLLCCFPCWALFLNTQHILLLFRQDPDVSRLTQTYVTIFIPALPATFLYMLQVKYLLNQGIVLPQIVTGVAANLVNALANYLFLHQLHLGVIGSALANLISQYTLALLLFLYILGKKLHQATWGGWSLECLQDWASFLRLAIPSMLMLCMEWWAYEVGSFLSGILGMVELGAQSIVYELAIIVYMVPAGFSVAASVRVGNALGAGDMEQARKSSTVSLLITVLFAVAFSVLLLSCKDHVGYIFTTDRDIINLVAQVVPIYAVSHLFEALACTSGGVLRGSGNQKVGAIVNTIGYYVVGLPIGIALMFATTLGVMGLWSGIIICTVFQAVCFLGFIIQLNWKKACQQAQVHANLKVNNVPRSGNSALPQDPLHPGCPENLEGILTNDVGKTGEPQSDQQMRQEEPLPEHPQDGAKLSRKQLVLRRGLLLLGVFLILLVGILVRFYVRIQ
Description: (§1) We characterized the inhibitory potential of iohexol on major drug transporters recommended by regulatory agencies, which were previously assessed in a clinical transporter phenotyping cocktail study. These transporters include hOAT1, hOAT3, hOCT1, hOCT2, hMATE1, hMATE2K, human organic anion transporter polypeptides (hOATP)1B1, hOATP1B3, and human multidrug resistance protein (hMDR)1. Additionally, we investigated whether iohexol is a substrate for any of the renal transporters among these, including hOAT1/3, hOCT1/2, and hMATE1/2K. Cell‐based uptake assays were used to assess the activities of hOAT1/3, hOCT1/2, hMATE1/2K, and hOATP1B1/1B3. Inside‐out membrane vesicle uptake assays were used to evaluate the activity of hMDR1.
(§2) To determine the maximal inhibitory potential of iohexol, intracellular accumulation of a standard substrate was measured with and without the clinically relevant highest concentrations of iohexol. Control inhibitors were tested in each experiment.
In all subsequent in vitro studies, control experiments were conducted to validate the results. These included positive controls for substrates and inhibitors, as well as cells either without transporter expression or transfected with an empty vector, and control vesicles. Each condition, including cells or vesicles with the transporter and their respective controls, was analyzed in at least three replicates. For detailed information on materials, methods, and data analysis techniques used, refer to the Supporting Information. […]
R version 4.2.1 (R Foundation for Statistical Computing, Vienna, Austria) was used for statistical evaluations and data visualization. The data analysis approach for the in vitro study was detailed by Hsin CH et al..^1 In brief, for transport assays, the initial uptake rate was calculated by normalizing the substrate concentration to both the protein concentration and the incubation time for each dish or well. The transporter-mediated uptake rate (net uptake) was determined by performing an element-wise subtraction of uptake rates from different conditions. […]

hMDR1 = biological target: T2, hMDR1 (Homo sapiens, UniProt P08183); experiment: Inhibition of hMDR1-mediated 3H-NMQ uptake, inside-out membrane vesicles; type: biochemical; settings: substrate 0.01 µM 3H-NMQ, median (95% CI)
T2 construct: purchased Pharm Tox, Netherlands; host or cells: HEK293 cells (membrane vesicles)
T2 sequence (P08183 whole entry): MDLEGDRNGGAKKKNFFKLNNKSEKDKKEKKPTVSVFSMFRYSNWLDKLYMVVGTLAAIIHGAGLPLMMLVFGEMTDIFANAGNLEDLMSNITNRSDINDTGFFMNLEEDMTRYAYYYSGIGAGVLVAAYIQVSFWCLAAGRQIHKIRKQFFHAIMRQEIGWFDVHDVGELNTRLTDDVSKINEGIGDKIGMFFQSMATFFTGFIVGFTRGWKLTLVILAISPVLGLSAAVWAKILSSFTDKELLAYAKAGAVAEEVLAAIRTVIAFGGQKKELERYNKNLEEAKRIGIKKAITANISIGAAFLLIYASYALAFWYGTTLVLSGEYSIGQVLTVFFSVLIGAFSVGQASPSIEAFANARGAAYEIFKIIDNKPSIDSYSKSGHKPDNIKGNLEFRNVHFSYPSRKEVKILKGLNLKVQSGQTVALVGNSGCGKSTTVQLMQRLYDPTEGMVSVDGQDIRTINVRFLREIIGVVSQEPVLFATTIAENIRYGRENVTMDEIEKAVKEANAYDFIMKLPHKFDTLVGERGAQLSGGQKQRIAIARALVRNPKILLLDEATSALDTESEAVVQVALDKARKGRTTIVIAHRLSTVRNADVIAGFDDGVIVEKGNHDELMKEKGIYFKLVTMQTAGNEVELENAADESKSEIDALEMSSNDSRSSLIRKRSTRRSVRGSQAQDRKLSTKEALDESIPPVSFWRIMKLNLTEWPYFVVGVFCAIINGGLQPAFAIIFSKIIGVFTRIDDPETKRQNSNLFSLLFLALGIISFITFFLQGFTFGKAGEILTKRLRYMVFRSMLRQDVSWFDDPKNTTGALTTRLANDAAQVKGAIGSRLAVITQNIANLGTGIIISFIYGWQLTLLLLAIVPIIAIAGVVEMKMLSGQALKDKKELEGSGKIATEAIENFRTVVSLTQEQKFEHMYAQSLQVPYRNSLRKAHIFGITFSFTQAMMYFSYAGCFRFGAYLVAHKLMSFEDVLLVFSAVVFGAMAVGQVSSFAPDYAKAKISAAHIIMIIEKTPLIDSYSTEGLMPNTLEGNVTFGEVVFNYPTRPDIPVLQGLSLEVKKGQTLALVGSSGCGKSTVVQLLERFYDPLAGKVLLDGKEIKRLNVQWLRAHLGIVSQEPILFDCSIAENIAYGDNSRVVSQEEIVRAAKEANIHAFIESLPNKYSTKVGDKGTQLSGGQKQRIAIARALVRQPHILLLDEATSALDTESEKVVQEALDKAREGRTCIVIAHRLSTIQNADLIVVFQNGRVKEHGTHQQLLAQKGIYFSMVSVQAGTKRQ
Description: as §1, §2
In all subsequent in vitro studies, control experiments were conducted to validate the results. […] Each condition, including cells or vesicles with the transporter and their respective controls, was analyzed in at least three replicates. […]
R version 4.2.1 (R Foundation for Statistical Computing, Vienna, Austria) was used for statistical evaluations and data visualization. The data analysis approach for the in vitro study was detailed by Hsin CH et al..^1 In brief, for transport assays, the initial uptake rate was calculated by normalizing the substrate concentration to both the protein concentration and the incubation time for each dish or well. The transporter-mediated uptake rate (net uptake) was determined by performing an element-wise subtraction of uptake rates from different conditions. […] Net uptake rates were determined by subtracting the uptake rate of the control cells or vesicles from that of the transporter-expressing cells or vesicles for each pair. […]

Inhibitory effect (% reduction of specific activity) (hMATE1; 20 mM iohexol): no notable inhibitory effects
inhibition at 1000 µM (hMATE1; HEK293, 1 mM iohexol, read-out: Inhibitory effect (% reduction of specific activity)): 5.4%
inhibition at 20000 µM (hMATE1; HEK293, 20 mM iohexol, read-out: Inhibitory effect (% reduction of specific activity)): 12%
Inhibitory effect (% reduction of specific activity) (hMDR1; 20 mM iohexol): < 30%
inhibition at 1 min, 2 mM (hMDR1; human, probe 3H-NMQ (N-methyl-quinidine), 0.01 µM, 2 mM iohexol, read-out: Inhibitory effect (% reduction of specific activity)): -4.9%
inhibition at 1 min, 20 mM (hMDR1; human, probe 3H-NMQ (N-methyl-quinidine), 0.01 µM, 20 mM iohexol, read-out: Inhibitory effect (% reduction of specific activity)): 21%
SMILES: CC(=O)N(CC(O)CO)c1c(I)c(C(=O)NCC(O)CO)c(I)c(C(=O)NCC(O)CO)c1I (stereo not drawn) [iohexol]
